Measured values as given in article PMC4526861, “Inhibition of protein kinase C by isojacareubin suppresses hepatocellular carcinoma metastasis and induces apoptosis in vitro and in vivo” (Scientific Reports, 2015).

Experiments:
c-PARP, p53 and p21 = test: Western blot of apoptotic proteins, HepG2; type: cell-based, human; settings: HepG2, 24 h
Experimental: Additional PKC targeting effects involved in the early response of major MAPK phosphorylation and the late response of HCC cell invasion and apoptosis were investigated. After 24 h of treatment with ISJ at the indicated concentrations, the total protein lysates from HCC cells were analyzed (Fig. 6). ISJ inhibited the phosphorylated, activated forms of c-Raf, MEK1/2 and ERK1/2 in the MAPK signaling pathway in both HepG2 and QGY-7703 cells (Fig. 6a). […] In contrast, E-cadherin expression was elevated, specifically at the highest concentration of ISJ (20 μM) (Fig. 6b). In addition, we analyzed several representative apoptotic proteins, including cleaved PARP (c-PARP), p53 and p21. […] These findings support our hypothesis that ISJ restrains HCC cell metastasis and induces HCC cell apoptosis by specifically inhibiting PKC.
The total membrane and cytosolic proteins were extracted using a Membrane and Cytosol Protein Extraction Kit (Beyotime). Extracted proteins from cells or animal tissues were separated by SDS-PAGE and transferred to polyvinylidene difluoride (PVDF) membranes (Bio-Rad). The PVDF membranes were blocked with 5% nonfat milk and incubated with primary antibodies overnight, followed by incubation with a donkey anti-rabbit or anti-mouse secondary antibody (IRDye 800, LI-COR, Biosciences). […] The intensity was quantitative with Quantity One software (Bio-Rad). […]

PKCζ = test: Western blot of PKC isoform expression in cytosol and membrane; type: cell-based, human; settings: HepG2, 24 h incubation
Experimental: To further determine whether compound 7 and ISJ represent potential candidates for selective PKC expression inhibitors against hepatoma, the expression of PKC isoforms in HepG2 cells was characterized by western blotting. After 24 h of incubation with GFX, GO, ISJ and compound 7 at the indicated concentrations, PKC proteins from the cytosol and membrane of HepG2 cells were evaluated. ISJ and compound 7 treatments reduced both the cytosol and cell membrane expression of PKCζ.
(§1) The total membrane and cytosolic proteins were extracted using a Membrane and Cytosol Protein Extraction Kit (Beyotime). Extracted proteins from cells or animal tissues were separated by SDS-PAGE and transferred to polyvinylidene difluoride (PVDF) membranes (Bio-Rad). The PVDF membranes were blocked with 5% nonfat milk and incubated with primary antibodies overnight, followed by incubation with a donkey anti-rabbit or anti-mouse secondary antibody (IRDye 800, LI-COR, Biosciences). The images were captured using the Odyssey Infrared Imaging System (LI-COR, Biosciences), according to the manufacturer's instructions. The intensity was quantitative with Quantity One software (Bio-Rad). To ensure equal protein loading, each membrane was stripped and reprobed with an anti-β-actin antibody. All experiments were repeated independently no less than three times.

[1] = system: c-PARP, c-Cas3 and c-Cas9 in xenograft tumors; test: Histology, IHC and immunoblot of xenograft tumors; type: in vivo, BALB/c-nu nude mice; settings: 5 mg/kg
Experimental: as §1
To further confirm the antitumor activities of compound 7 and ISJ in vivo, histological analysis was performed on the hepatoma xenografts. Briefly, the samples were fixed in a 10% formalin solution, processed, embedded, sectioned and either H&E stained to reveal tumor tissue necrosis or IHC stained using antibodies against c-PARP, c-Cas3 or c-Cas9. The H&E and IHC images were obtained on a Leica DMI3000 B phase-contrast microscopy. The immunoreactive areas in the IHC images were quantified using ImagePro Plus 6.0 software (Media Cybernetics, Silver Spring, MD). The integrated optical density (IOD) values were represented as the mean ± SEM.

HepG2 cells = test: Matrigel invasion assay; type: cell-based, human; settings: 10 μM, 24 h
Experimental: Cell migration and invasion potencies were studied using wound healing and Matrigel invasion assays. The wound healing assay was performed by scratching the cell surface with a 10 μL pipette tip. Then, the cells were treated with compound 7 and ISJ (10 μM) and incubated for 24 h before being photographed under a microscope (DMI3000 B, Leica). Wound closure was evaluated using ImageJ software. Invasion through a Matrigel-coated filter was measured in transwell chambers (Corning Costa) as described previously, with minor modifications. Briefly, HepG2 Cells (2 × 10^5/well) were suspended in serum-free medium and added to the upper chamber of the Matrigel plate. FBS (10%) was used as the chemoattractant in the lower chamber. After incubation for 24 h, the non-invading cells were removed from the upper surface of the insert membrane with a cotton swab. The invading cells were fixed with methanol and stained with Giemsa (Sigma). Cells in five randomly selected fields were photographed, and the numbers of cells that crossed the membrane were counted.

[2] = system: methicillin-resistant Staphylococcus aureus (MRSA); set-up: method as in PMID 22942699; settings: cited from earlier work
PKCα = target: T1, PKCα (Homo sapiens, UniProt P17252); test: Cell-based pull-down assay, PKCα; type: binding; settings: HepG2 lysates
T1 construct: Endogenous cPKC (PKCα) and nPKC (PKCδ, PKCε and PKCμ) in HepG2 lysates were pulled down; endogenous in cells; host or cells: HepG2
Experimental: To identify whether ISJ and compound 7 target PKC in cells, we performed pull-down experiments using ISJ- and compound 7-coupled Sepharose beads with HepG2 cell lysates. Endogenous cPKC (PKCα) and nPKC (PKCδ, PKCε and PKCμ) in HepG2 lysates were pulled down by ISJ-coupled CNBr-activated Sepharose 4B beads (Fig. 5a).
The control beads were prepared by incubating the beads with DMSO. Proteins (500 μg) from lysed HepG2 cells were mixed with either the control beads, compound 7-coupled beads, or ISJ-coupled beads (100 μL) in reaction buffer [50 mM Tris (pH 7.5), 5 mM EDTA, 150 mM NaCl, 1 mM DTT, 0.01% NP-40, 2 μg/mL BSA, 1 mM PMSF, 1% protease inhibitor mixture]. After incubation with gentle rocking overnight at 4 °C, the beads were washed 5 times with washing buffer [50 mM Tris (pH 7.5), 5 mM EDTA, 150 mM NaCl, 1 mM DTT, 0.01% NP-40, 1 mM PMSF], and binding was visualized by western blotting.

[3] = Body weight in xenograft study; type: in vivo, BALB/c-nu nude mice; settings: 5 mg/kg, tail vein, two weeks
Experimental: HepG2 cells were harvested and resuspended in PBS. A total of 5 × 10^6 cells were subcutaneously injected into the right flank. Tumor volume was calculated using the following formula: V = (L × W^2)/2, where L is the length and W is the width of the tumor nodules measured with vernier calipers. Once the volume of the tumors reached 75–100 mm^3, the mice were randomly divided into three groups (n = 5). The mice were treated every other day for two weeks with tail vein injections of either vehicle (5% ethanol and 2.5% polyethylene glycol in saline), compound 7, or ISJ (5 mg/kg in the vehicle). Body weights were measured before each drug injection. After the 15th day, the mice were euthanized, and the tumors were isolated, weighed and photographed.

Isojacareubin [ISJ]
expression levels of c-PARP, p53 and p21 (c-PARP, p53 and p21): increased
PKCζ expression in cytosol and cell membrane (PKCζ): significantly decreased
H&E staining of xenograft tumors [1]: significant tissue death
IHC c-PARP, c-Cas3 and c-Cas9 levels in tumors [1]: upregulated expression
immunoblot c-PARP, c-Cas3 and c-Cas9 levels in tumor tissue [1]: increased
inhibition of invasiveness compared to control (HepG2 cells): 76%
antibacterial activity against MRSA [2]: potent antibacterial compound
pull-down of endogenous PKCα by compound-coupled Sepharose 4B beads (PKCα): pulled down
change in body weight compared to vehicle-treated controls [3]: no significant change
